In patent US20130252890A1, “6,7-DIHYDRO-5H-BENZO[7]ANNULENE DERIVATIVES, PROCESS FOR PREPARATION THEREOF, PHARMACEUTICAL PREPARATIONS COMPRISING THEM, AND THE USE THEREOF FOR PRODUCTION OF MEDICAMENTS” (BAYER INTELLECTUAL PROPERTY GMBH, priority 2010, published 2013):
pIC50: −log10 of the molar value.

target: T1, oestrogen receptor (ER) (Homo sapiens, UniProt P03372); experiment: Anti-oestrogenic action in MVLN cells (inhibition of estradiol-induced luciferase); format: cell-based; conditions: inhibition of estradiol-induced luciferase signal, value of Ex. 44 is a mean value, read-out: Antioestrogenic action in vitro: MVLN transactivation antagonism IC50
T1 construct: These MVLN cells express, along with the functional oestrogen receptor (ER), a reporter construct; endogenous in cells; host or cells: MVLN cells (MCF7 derivative carrying a luciferase reporter construct)
T1 sequence (P03372 1-595): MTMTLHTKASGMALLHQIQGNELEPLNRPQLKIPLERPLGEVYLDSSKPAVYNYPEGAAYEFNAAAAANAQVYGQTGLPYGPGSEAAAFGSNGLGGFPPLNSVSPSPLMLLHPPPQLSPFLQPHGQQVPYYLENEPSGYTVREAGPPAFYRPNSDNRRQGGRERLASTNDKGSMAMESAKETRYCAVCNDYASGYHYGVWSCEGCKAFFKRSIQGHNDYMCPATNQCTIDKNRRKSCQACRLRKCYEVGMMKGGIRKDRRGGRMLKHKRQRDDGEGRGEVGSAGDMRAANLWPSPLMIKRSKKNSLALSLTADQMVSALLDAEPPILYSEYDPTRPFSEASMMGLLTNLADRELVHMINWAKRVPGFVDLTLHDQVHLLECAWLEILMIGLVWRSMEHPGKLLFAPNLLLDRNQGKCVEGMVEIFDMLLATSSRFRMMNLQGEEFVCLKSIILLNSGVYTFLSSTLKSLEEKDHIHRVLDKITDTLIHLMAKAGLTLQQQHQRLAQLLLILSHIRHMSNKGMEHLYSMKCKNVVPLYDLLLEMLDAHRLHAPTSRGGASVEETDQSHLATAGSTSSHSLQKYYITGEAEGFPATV
How it was run: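 Inhibition of estradiol-driven luciferase expression was measured with compounds co-applied alongside oestrogen. Reporter system: MCF7-derived MVLN cells expressing endogenous functional ER and an ER-responsive luciferase construct.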

pIC50 | Compound
7.68 | N#CCN(CCCCCCC1=C(c2ccc(F)cc2)CCCc2cc(O)ccc21)CCCS(=O)(=O)CCCCC(F)(F)F [Example 141, ({6-[8-(4-Fluorophenyl)-3-hydroxy-6,7-dihydro-5H-benzo[7]annulen-9-yl]hexyl}{3-[(5,5,5-trifluoropentyl)sulphonyl]propyl}amino)acetonitrile]
8.05 | CN(CCCCCCC1=C(c2cc(F)ccc2F)CCCc2cc(O)ccc21)CCCCS(=O)(=O)CCCC(F)(F)F [Example 143, 8-(2,5-Difluorophenyl)-9-[6-(methyl{4-[(4,4,4-trifluorobutyl)sulphonyl]butyl}amino)hexyl]-6,7-dihydro-5H-benzo[7]annulen-3-ol]
8.00 | CN(CCCCCCC1=C(c2ccc(F)cc2)CCCc2cc(O)c(F)cc21)CCCCS(=O)(=O)C1CCC(F)(F)CC1 [Example 144, 9-{6-[{4-[(4,4-Difluorocyclohexyl)sulphonyl]butyl}(methyl)amino]hexyl}-2-fluoro-8-(4-fluorophenyl)-6,7-dihydro-5H-benzo[7]annulen-3-ol]
7.66 | CN(CCCCCCC1=C(c2ccc(F)cc2F)CCCc2cc(O)ccc21)CCCS(=O)(=O)CCC(F)(F)C(F)(F)F [Example 145, 8-(2,4-Difluorophenyl)-9-[6-(methyl{3-[(3,3,4,4,4-pentafluorobutyl)sulphonyl]propyl}amino)hexyl]-6,7-dihydro-5H-benzo[7]annulen-3-ol]
7.82 | CN(CCCCCCC1=C(c2ccc(F)cc2F)CCCc2cc(O)ccc21)CCCCS(=O)(=O)CCC(F)(F)C(F)(F)F [Example 146, 8-(2,4-Difluorophenyl)-9-[6-(methyl{4-[(3,3,4,4,4-pentafluorobutyl)sulphonyl]-butyl}amino)hexyl]-6,7-dihydro-5H-benzo[7]annulen-3-ol]
7.49 | CN(CCCCCCC1=C(c2ccc(F)cc2F)CCCc2cc(O)ccc21)CCCCS(=O)(=O)CCCC(F)(F)C(F)(F)F [Example 147, 8-(2,4-Difluorophenyl)-9-[6-(methyl{4-[(4,4,5,5,5-pentafluoropentyl)sulphonyl]butyl}amino)hexyl]-6,7-dihydro-5H-benzo[7]annulen-3-ol]
7.77 | CN(CCCCCCC1=C(c2ccc(F)cc2)CCCc2cc(O)ccc21)CCCS(=O)(=O)CCCCCC(F)(F)F [Example 148, 8-(4-Fluorophenyl)-9-[6-(methyl{3-[(6,6,6-trifluorohexyl)sulphonyl]propyl}amino)hexyl]-6,7-dihydro-5H-benzo[7]annulen-3-ol]
7.85 | CN(CCCCCCC1=C(c2ccc(F)cc2)CCCc2c1ccc(O)c2F)CCCS(=O)(=O)CCCC(F)(F)F [Example 149, 4-Fluoro-8-(4-fluorophenyl)-9-[6-(methyl{3-[(4,4,4-trifluorobutyl)sulphonyl]propyl}amino)hexyl]-6,7-dihydro-5H-benzo[7]annulen-3-ol]

More lines, now with the values behind:

Compound | pIC50
CN(CCCCCCC1=C(c2ccc(F)cc2F)CCCc2cc(O)ccc21)CCCS(=O)(=O)CCCC(F)(F)C(F)(F)F [Example 128, 8-(2,4-Difluorophenyl)-9-[6-(methyl{3-[(4,4,5,5,5-pentafluoropentyl)sulphonyl]propyl}amino)hexyl]-6,7-dihydro-5H-benzo[7]annulen-3-ol] | 8.22
CN(CCCCCCC1=C(c2ccc(F)cc2F)CCCc2cc(O)ccc21)CCCS(=O)(=O)CCCCC(F)(F)F [Example 129, 8-(2,4-Difluorophenyl)-9-[6-(methyl{3-[(5,5,5-trifluoropentyl)sulphonyl]propyl}amino)hexyl]-6,7-dihydro-5H-benzo[7]annulen-3-ol] | 8.30
CN(CCCCCCC1=C(c2ccc(F)cc2F)CCCc2cc(O)ccc21)CCCS(=O)(=O)CCC(F)(F)F [Example 130, 8-(2,4-Difluorophenyl)-9-[6-(methyl{3-[(3,3,3-trifluoropropyl)sulphonyl]propyl}amino)hexyl]-6,7-dihydro-5H-benzo[7]annulen-3-ol] | 7.80
CN(CCCCCCC1=C(c2ccc(F)cc2F)CCCc2cc(O)ccc21)CCCCS(=O)(=O)CCC(F)(F)F [Example 131, 8-(2,4-Difluorophenyl)-9-[6-(methyl{4-[(3,3,3-trifluoropropyl)sulphonyl]butyl}amino)hexyl]-6,7-dihydro-5H-benzo[7]annulen-3-ol] | 8.52
CN(CCCCCCC1=C(c2ccc(F)cc2F)CCCc2cc(O)ccc21)CCCCS(=O)(=O)CCCC(F)(F)F [Example 132, 8-(2,4-Difluorophenyl)-9-[6-(methyl{4-[(4,4,4-trifluorobutyl)sulphonyl]butyl}amino)hexyl]-6,7-dihydro-5H-benzo[7]annulen-3-ol] | 8.40
CN(CCCCCCC1=C(c2ccc(F)cc2F)CCCc2cc(O)ccc21)CCCCCS(=O)(=O)CCC(F)(F)F [Example 133, 8-(2,4-Difluorophenyl)-9-[6-(methyl{5-[(3,3,3-trifluoropropyl)sulphonyl]pentyl}amino)hexyl]-6,7-dihydro-5H-benzo[7]annulen-3-ol] | 8.15
CN(CCCCCCC1=C(c2ccc(F)cc2F)CCCc2cc(O)ccc21)CCCS(=O)(=O)CCCC(F)(F)F [Example 134, 8-(2,4-Difluorophenyl)-9-[6-(methyl{3-[(4,4,4-trifluorobutyl)sulphonyl]propyl}amino)hexyl]-6,7-dihydro-5H-benzo[7]annulen-3-ol] | 8.30
CN(CCCCCCC1=C(c2ccc(F)cc2F)CCCc2cc(O)ccc21)CCCS(=O)(=O)CCCCCC(F)(F)F [Example 135, 8-(2,4-Difluorophenyl)-9-[6-(methyl{3-[(6,6,6-trifluorohexyl)sulphonyl]propyl}amino)hexyl]-6,7-dihydro-5H-benzo[7]annulen-3-ol] | 8.30
[2H]C([2H])([2H])N(CCCCCCC1=C(c2ccc(F)cc2F)CCCc2cc(O)ccc21)CCCS(=O)(=O)CCCCC(F)(F)F [Example 136, 8-(2,4-Difluorophenyl)-9-{6-[(^2H3)methyl{3-[(5,5,5-trifluoropentyl)sulphonyl]propyl}amino]hexyl}-6,7-dihydro-5H-benzo[7]annulen-3-ol] | 8.05
[2H]C([2H])([2H])N(CCCCCCC1=C(c2cc(F)ccc2F)CCCc2cc(O)ccc21)CCCS(=O)(=O)CCCCC(F)(F)F [Example 137, 8-(2,5-Difluorophenyl)-9-{6-[(^2H3)methyl{3-[(5,5,5-trifluoropentyl)sulphonyl]propyl}amino]hexyl}-6,7-dihydro-5H-benzo[7]annulen-3-ol] | 8.22
O=S(=O)(CCCCN(CCO)CCCCCCC1=C(c2ccc(F)cc2)CCCc2cc(O)c(F)cc21)CCC(F)(C(F)(F)F)C(F)(F)F [Example 138, 2-Fluoro-8-(4-fluorophenyl)-9-{6-[(2-hydroxyethyl)(4-{[3,4,4,4-tetrafluoro-3-(trifluoromethyl)butyl]sulphonyl}butyl)amino]hexyl}-6,7-dihydro-5H-benzo[7]annulen-3-ol] | 7.68
[2H]C([2H])([2H])N(CCCCCCC1=C(c2ccc(F)cc2)CCCc2cc(O)ccc21)CCCS(=O)(=O)CCCCC(F)(F)F [Example 139, 8-(4-Fluorophenyl)-9-{6-[(^2H3)methyl{3-[(5,5,5-trifluoropentyl)sulphonyl]propyl}amino]hexyl}-6,7-dihydro-5H-benzo[7]annulen-3-ol] | 8.15
CN(CCCCCCC1=C(c2ccc(F)cc2)CCCc2cc(O)c(F)cc21)CCCS(=O)(=O)CCCCCC(F)(F)F [Example 140, 2-Fluoro-8-(4-fluorophenyl)-9-[6-(methyl{3-[(6,6,6-trifluorohexyl)sulphonyl]propyl}amino)hexyl]-6,7-dihydro-5H-benzo[7]annulen-3-ol] | 8.40
